Reference: patent US7091311B2, “Peptides and compounds that bind to a receptor” (SmithKline Beecham Corporation, priority 1996, dated 2006)
Read-outs that look alike come from different tables or passages of the source. Where a SMILES comes first, the peptide text is derived from it. Where no end group is shown, it is not given here.

Key:
[1] = molecular target: T1, human TPO-R (Homo sapiens, UniProt P40238); experiment: thrombopoietin dependent cell proliferation assay, TPO-R transfected Ba/F3 cells (MTT); assay type: cell-based; conditions: for EC50: Table 9, read-out: EC50 (nM) Prolif.
T1 construct: transfected with full length human TPO-R; expressed in transfected cells; host or cells: murine Ba/F3 cells
T1 sequence (P40238 26-635): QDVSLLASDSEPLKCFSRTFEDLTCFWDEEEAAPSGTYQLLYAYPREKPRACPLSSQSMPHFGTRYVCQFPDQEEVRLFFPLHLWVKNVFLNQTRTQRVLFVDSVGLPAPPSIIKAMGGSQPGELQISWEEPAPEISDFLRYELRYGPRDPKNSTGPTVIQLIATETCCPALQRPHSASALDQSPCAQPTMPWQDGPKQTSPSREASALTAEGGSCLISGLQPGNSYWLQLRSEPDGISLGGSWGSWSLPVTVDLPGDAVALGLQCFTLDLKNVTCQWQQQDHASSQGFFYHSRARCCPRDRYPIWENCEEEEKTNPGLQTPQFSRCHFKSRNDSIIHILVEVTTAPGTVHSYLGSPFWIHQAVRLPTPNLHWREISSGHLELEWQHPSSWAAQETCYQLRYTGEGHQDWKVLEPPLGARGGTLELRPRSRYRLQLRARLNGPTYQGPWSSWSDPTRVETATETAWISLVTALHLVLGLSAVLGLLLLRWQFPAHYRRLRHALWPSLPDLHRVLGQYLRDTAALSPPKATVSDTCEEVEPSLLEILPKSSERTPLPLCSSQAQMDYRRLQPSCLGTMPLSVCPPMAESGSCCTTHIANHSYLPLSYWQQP
Procedure: Bioactivity of the peptides can be measured using a thrombopoietin dependent cell proliferation assay. Murine IL-3 dependent Ba/F3 cells were transfected with full length human TPO-R. In the absence of IL-3 (WEHI-3 conditioned media), these cells are dependent on TPO for proliferation.
The cells were grown in complete RPMI-10 media, containing 10% WEHI-3 conditioned media, then washed twice in PBS, resuspended in media which lacked WEHI-3 conditioned media, and added to wells containing dilutions of peptide or TPO at 2×10^4 cells/well. The cells were incubated for 48 hours at 37° C. in a humidified 5% Co2 atmosphere and metabolic activity was assayed by the reduction of MTT to formazan, with absorbance at 570 nm measured on an ELISA plate reader.

[2] = molecular target: T2, TPO-R (Homo sapiens, UniProt P40238); experiment: competition binding assay: MBP-TPO156 binding to immobilized TPO-R (ELISA)
T2 construct: made in house
T2 sequence (P40238 26-491 limits assumed): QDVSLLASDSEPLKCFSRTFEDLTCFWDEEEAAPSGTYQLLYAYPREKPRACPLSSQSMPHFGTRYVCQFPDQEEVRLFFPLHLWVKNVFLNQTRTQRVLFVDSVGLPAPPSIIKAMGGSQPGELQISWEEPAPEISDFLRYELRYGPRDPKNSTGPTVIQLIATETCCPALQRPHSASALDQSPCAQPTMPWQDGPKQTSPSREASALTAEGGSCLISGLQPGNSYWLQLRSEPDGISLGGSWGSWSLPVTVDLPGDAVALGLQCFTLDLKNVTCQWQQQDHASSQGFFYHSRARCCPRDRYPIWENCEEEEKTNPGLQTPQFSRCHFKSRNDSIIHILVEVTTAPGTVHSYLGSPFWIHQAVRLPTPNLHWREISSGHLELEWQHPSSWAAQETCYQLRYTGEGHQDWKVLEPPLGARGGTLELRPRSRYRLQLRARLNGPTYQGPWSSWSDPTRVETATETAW
Procedure: A variety of methods can be used to evaluate IC50 values. For example, an equilibrium binding ELISA assay, using either MBP-TPO or lacI-peptide tracer, was used to determine whether the peptides inhibit the binding of TPO to the extracellular domain of the TPO receptor. Typically, the IC50 value were determined using the free peptide. The IC50value can be determined using the free peptide, which optionally can be C-terminally amidated, or can be prepared as an ester or other carboxy amide.
Binding affinities of chemically synthesized peptides for TPO-R were measured in a competition binding assay. The wells of a microtiter plate were coated with 1 mg streptavidin, blocked with PBS/1% BSA, followed by 50 ng of biotinylated anti-receptor immobilizing antibody (Ab179). The wells were then treated with a 1:10 dilution of soluble TPO-R harvest. Various concentrations of peptide or peptide mimetic were mixed with a constant amount of a truncated form of TPO consisting of residues 1–156 fused to the C-terminus of maltose binding protein (MBP-TPO156). The peptide MBP-TPO156 mixtures were added to the TPO-R coated wells, incubated for 2 hours at 4° C. and then washed with PBS. The amount of MBP-TPO156 that was bound at equilibrium was measured by adding a rabbit anti-sera directed against MBP, followed by alkaline phosphatase conjugated goat anti-rabbit IgG. The amount of alkaline phosphatase in each well was then determined using standard methods.
The assay is conducted over a range of peptide concentrations and the results are graphed such that the y axis represents the amount of bound MBP-TPO156 and the x axis represents the concentration of peptide or peptide mimetic.

[3] = Table 7, dimer compounds, read-out: IC50
[4] = Table 3, free peptide, read-out: Affinity (IC50)

CC[C@H](C)[C@@H]1NC(=O)[C@@H](N)CSSC[C@@H](C(N)=O)NC(=O)[C@H](C)NC(=O)[C@H](CCCNC(=N)N)NC(=O)[C@H](C)NC(=O)[C@H](C)NC(=O)[C@H](CC(C)C)NC(=O)[C@H](Cc2c[nH]c3ccccc23)NC(=O)[C@H](CCC(N)=O)NC(=O)[C@H](CCCNC(=N)N)NC(=O)[C@H](CC(C)C)NC(=O)[C@H]([C@@H](C)O)NC(=O)[C@@H]2CCCN2C(=O)CNC(=O)[C@H](CCC(=O)O)NC1=O (HELM PEPTIDE1{C.I.E.G.P.T.L.R.Q.W.L.A.A.R.A.C.[am]}$PEPTIDE1,PEPTIDE1,1:R3-16:R3$$$V2.0)
EC50 [1]: ≤ 500 nM

CC[C@H](C)[C@H](NC(=O)[C@H](Cc1c[nH]c2ccccc12)NC(=O)[C@H](CCC(=O)O)NC(=O)[C@H](CCCNC(=N)N)NC(=O)[C@H](CC(C)C)NC(=O)[C@@H](NC(=O)[C@@H]1CCCN1C(=O)CNC(=O)[C@H](CC(=O)O)NC(C)=O)[C@@H](C)O)C(=O)N[C@@H](CO)C(=O)N[C@@H](Cc1ccccc1)C(=O)N[C@@H](CSSC[C@H](NC(=O)[C@H](Cc1ccccc1)NC(=O)[C@H](CO)NC(=O)[C@@H](NC(=O)[C@H](Cc1c[nH]c2ccccc12)NC(=O)[C@H](CCC(=O)O)NC(=O)[C@H](CCCNC(=N)N)NC(=O)[C@H](CC(C)C)NC(=O)[C@@H](NC(=O)[C@@H]1CCCN1C(=O)CNC(=O)[C@H](CC(=O)O)NC(C)=O)[C@@H](C)O)[C@@H](C)CC)C(N)=O)C(N)=O (HELM PEPTIDE1{[ac].D.G.P.T.L.R.E.W.I.S.F.C.[am]}|PEPTIDE2{[ac].D.G.P.T.L.R.E.W.I.S.F.C.[am]}$PEPTIDE1,PEPTIDE2,13:R3-13:R3$$$V2.0; C-terminus assumed)
IC50 [2, 3]: ≤ 500 nM

CC[C@H](C)[C@H](NC(=O)[C@H](Cc1c[nH]c2ccccc12)NC(=O)[C@H](CCC(=O)O)NC(=O)[C@H](CCCNC(=N)N)NC(=O)[C@H](CC(C)C)NC(=O)[C@@H](NC(=O)[C@@H]1CCCN1C(=O)CNC(C)=O)[C@@H](C)O)C(=O)N[C@@H](CO)C(=O)N[C@@H](Cc1ccccc1)C(=O)N[C@@H](CSSC[C@H](NC(=O)[C@H](Cc1ccccc1)NC(=O)[C@H](CO)NC(=O)[C@@H](NC(=O)[C@H](Cc1c[nH]c2ccccc12)NC(=O)[C@H](CCC(=O)O)NC(=O)[C@H](CCCNC(=N)N)NC(=O)[C@H](CC(C)C)NC(=O)[C@@H](NC(=O)[C@@H]1CCCN1C(=O)CNC(C)=O)[C@@H](C)O)[C@@H](C)CC)C(N)=O)C(N)=O (HELM PEPTIDE1{[ac].G.P.T.L.R.E.W.I.S.F.C.[am]}|PEPTIDE2{[ac].G.P.T.L.R.E.W.I.S.F.C.[am]}$PEPTIDE1,PEPTIDE2,12:R3-12:R3$$$V2.0; C-terminus assumed)
IC50 [2, 3]: ≤ 500 nM

CC[C@H](C)[C@H](NC(=O)[C@H](Cc1c[nH]c2ccccc12)NC(=O)[C@H](CCC(=O)O)NC(=O)[C@H](CCCNC(=N)N)NC(=O)[C@H](CC(C)C)NC(=O)[C@@H](NC(=O)[C@@H]1CCCN1C(C)=O)[C@@H](C)O)C(=O)N[C@@H](CO)C(=O)N[C@@H](Cc1ccccc1)C(=O)N[C@@H](CSSC[C@H](NC(=O)[C@H](Cc1ccccc1)NC(=O)[C@H](CO)NC(=O)[C@@H](NC(=O)[C@H](Cc1c[nH]c2ccccc12)NC(=O)[C@H](CCC(=O)O)NC(=O)[C@H](CCCNC(=N)N)NC(=O)[C@H](CC(C)C)NC(=O)[C@@H](NC(=O)[C@@H]1CCCN1C(C)=O)[C@@H](C)O)[C@@H](C)CC)C(N)=O)C(N)=O (HELM PEPTIDE1{[ac].P.T.L.R.E.W.I.S.F.C.[am]}|PEPTIDE2{[ac].P.T.L.R.E.W.I.S.F.C.[am]}$PEPTIDE1,PEPTIDE2,11:R3-11:R3$$$V2.0; C-terminus assumed)
IC50 [2, 3]: ≤ 500 nM

CC[C@H](C)[C@H](NC(=O)[C@H](Cc1c[nH]c2ccccc12)NC(=O)[C@H](CCC(=O)O)NC(=O)[C@H](CCCNC(=N)N)NC(=O)[C@H](CC(C)C)NC(=O)[C@@H](NC(C)=O)[C@@H](C)O)C(=O)N[C@@H](CO)C(=O)N[C@@H](Cc1ccccc1)C(=O)N[C@@H](CSSC[C@H](NC(=O)[C@H](Cc1ccccc1)NC(=O)[C@H](CO)NC(=O)[C@@H](NC(=O)[C@H](Cc1c[nH]c2ccccc12)NC(=O)[C@H](CCC(=O)O)NC(=O)[C@H](CCCNC(=N)N)NC(=O)[C@H](CC(C)C)NC(=O)[C@@H](NC(C)=O)[C@@H](C)O)[C@@H](C)CC)C(N)=O)C(N)=O (HELM PEPTIDE1{[ac].T.L.R.E.W.I.S.F.C.[am]}|PEPTIDE2{[ac].T.L.R.E.W.I.S.F.C.[am]}$PEPTIDE1,PEPTIDE2,10:R3-10:R3$$$V2.0; C-terminus assumed)
IC50 [2, 3]: 200000 nM

CC[C@H](C)[C@@H]1NC(=O)[C@H](Cc2c[nH]c3ccccc23)NC(=O)[C@H](CCC(=O)O)NC(=O)[C@H](CCCNC(=N)N)NC(=O)[C@H](CC(C)C)NC(=O)[C@H]([C@@H](C)O)NC(=O)[C@@H]2CCCN2C(=O)CNC(=O)[C@H](CC(=O)O)NC(=O)[C@H](C)NC(=O)CSC[C@@H](C(=O)NCC(N)=O)NC(=O)[C@H](Cc2ccccc2)NC(=O)[C@H](CO)NC1=O [C-term, Gly addition] (HELM PEPTIDE1{[O=C(C[*:3])[*:2]].A.D.G.P.T.L.R.E.W.I.S.F.C.G.[am]}$PEPTIDE1,PEPTIDE1,1:R3-14:R3$$$V2.0; C-terminus assumed)
IC50 ([2]; Table 6, read-out: IC50): ≤ 500 nM

CC[C@H](C)[C@@H]1NC(=O)[C@H](Cc2c[nH]c3ccccc23)NC(=O)[C@H](CCC(=O)O)NC(=O)[C@H](CCCNC(=N)N)NC(=O)[C@H](CC(C)C)NC(=O)[C@H]([C@@H](C)O)NC(=O)[C@@H]2CCCN2C(=O)CNC(=O)[C@H](CC(=O)O)NC(=O)[C@H](C)NC(=O)CSC[C@@H](C(N)=O)NC(=O)[C@H](C(c2ccccc2)c2ccccc2)NC(=O)[C@H](CO)NC1=O [F - DiPh-Ala] (HELM PEPTIDE1{[O=C(C[*:3])[*:2]].A.D.G.P.T.L.R.E.W.I.S.[O=C([C@@H](N[*:1])C(c1ccccc1)c1ccccc1)[*:2]].C.[am]}$PEPTIDE1,PEPTIDE1,1:R3-14:R3$$$V2.0; C-terminus assumed)
IC50 ([2]; Table 6, read-out: IC50): ≤ 500 nM

CC[C@@H]1NC(=O)[C@H]([C@@H](C)CC)NC(=O)[C@H](Cc2c[nH]c3ccccc23)NC(=O)[C@H](CCC(=O)O)NC(=O)[C@H](CCCNC(=N)N)NC(=O)[C@H](CC(C)C)NC(=O)[C@H]([C@@H](C)O)NC(=O)[C@@H]2CCCN2C(=O)CNC(=O)[C@H](CC(=O)O)NC(=O)[C@H](C)NC(=O)CSC[C@@H](C(N)=O)NC(=O)[C@H](C(c2ccccc2)c2ccccc2)NC1=O [S,F - Abu, DiPh-Ala] (HELM PEPTIDE1{[O=C(C[*:3])[*:2]].A.D.G.P.T.L.R.E.W.I.[Abu].[O=C([C@@H](N[*:1])C(c1ccccc1)c1ccccc1)[*:2]].C.[am]}$PEPTIDE1,PEPTIDE1,1:R3-14:R3$$$V2.0; C-terminus assumed)
IC50 ([2]; Table 6, read-out: IC50): ≤ 500 nM

AF 12885 with streptavidin (SA): complexed biotinylated peptide: G G C A D G P T L R E W I S F C G G K (Biotin) preincubated with streptavidin, 4:1 molar ratio
potency of pre-formed streptavidin complex relative to the free peptide ([1]; peptide preincubated with streptavidin at 4:1 molar ratio, FIG. 2): approximately 10 times

GNADGPTLRQWLEGRRPKN [G N A D G P T L R Q W L E G R R P K N]
IC50 [2, 4]: ≤ 500 nM

GPTLRQWL [G P T L R Q W L]
IC50 [2, 4]: > 200000 nM

H-IEGPTLRQWLAARA-NH2
EC50 [1]: ≤ 500 nM
IC50 ([2]; Table 9, read-out: IC50): ≤ 500 nM

LAIEGPTLRQWLHGNGRDT [L A I E G P T L R Q W L H G N G R D T]
IC50 [2, 4]: ≤ 500 nM

SIEGPTLREWLTSRTPHS [S I E G P T L R E W L T S R T P H S]
IC50 [2, 4]: ≤ 500 nM

TIKGPTLRQWLKSREHTS [T I K G P T L R Q W L K S R E H T S]
IC50 [2, 4]: ≤ 500 nM
